Entries after “also recorded” stand apart in the source; their conditions may differ.
Key:
[1] = test system: DMHC pigs (Abeta42 in cerebral cortex); test: Abeta42 amount and distribution in cerebral cortex of DMHC pig brain; type: in vivo; conditions: 10 mg/kg/day for 24 weeks
Experimental: (§1) Yorkshire domestic farm pigs (˜25-35 kg; Archer Farms) were induced for diabetes with a single intravenous injection of 125 mg/kg streptozotocin (Mohler et al., 2008). Blood glucose and cholesterol were closely monitored. Three days after diabetes induction, a hyperlipidemic diet was used to achieve hypercholesterolemia with serum cholesterol concentrations clamped between 400 and 800 mg/dl. Because pigs have a variable serum cholesterol response to a high cholesterol diet, cholesterol concentrations were checked every two months. […]
(§2) Specimens from the brains of 29 pigs, included 3 untreated controls; 13 DMHC and 13 DMHC treated with Darapladib (Rx), were embedded in paraffin wax. Each brain specimen was serially sectioned, and the first section representing each sample was stained with Hematoxylin and Eosin (H+E) which permitted cortical from non-cortical regions based on differential staining to be determined. Full (large) face tissue blocks were used throughout this study in an effort to maximize the amount of tissue analyzed so as to favor subsequent quantification. The total areas (in sq. mm) of cortical and non-cortical brain tissue in each section were measured in H+E− stained sections using computer-assisted image analysis and Image Pro Plus software. […]

DM/HC pigs = test: Behavioural observation of DM/HC pigs; type: in vivo, pig; conditions: 10 mg/kg/day, vs DM/HC control animals
Experimental: Yorkshire domestic farm pigs (˜25-35 kg; Archer Farms) were induced for diabetes with a single intravenous injection of 125 mg/kg streptozotocin (Mohler et al., 2008). Blood glucose and cholesterol were closely monitored. Three days after diabetes induction, a hyperlipidemic diet was used to achieve hypercholesterolemia with serum cholesterol concentrations clamped between 400 and 800 mg/dl. Because pigs have a variable serum cholesterol response to a high cholesterol diet, cholesterol concentrations were checked every two months. One month after DMHC induction, pigs were randomly assigned into either a control group or a treatment group receiving 10 mg/kg/d orally of the selective Lp-PLA2 inhibitor Darapladib (GlaxoSmithKline). Pigs were sacrificed after 28 weeks after induction (that is, 24 weeks after initiation of treatment). At the time of completion of the study, there were 17 pigs in the control group and 20 in the Darapladib-treated group, as three pigs in the control group were excluded from analysis because of persistently elevated cholesterol levels. […] The specific experiment was published (Wilensky et al., 2008) but no vascular leak data was presented in that publication.

[2] = test system: DMHC pigs (blood-brain barrier); test: IgG leak from brain blood vessels (BBB permeability) in diabetic/hypercholesterolemic pigs; type: in vivo, pig; conditions: 10 mg/kg/day orally for 24 weeks
Experimental: as §1, §2

[3] = test system: STZ-induced diabetic SD rats; conditions: first study, 10 mg/kg/d i.p. from day 4
Experimental: Male SD rats, 6 weeks of age and weighing 180-200 g, were used in this study; the rats had free access to food and water and were maintained in cages in an environmentally controlled room with a 12 hour light-dark cycle. Diabetes was induced by following dosing of animals with streptozotocin (50 mg/kg/day dosed i.p. for each of the first 3 days of the protocol) in 10 mM sodium citrate-buffer pH 4.6. […] Animals which maintained an elevated blood glucose level of over 9 mM were deemed diabetic.
The retinal images were scanned by a commercially available Fourier-domain OCT (RTVue-100; version 2.1; Optovue, Inc., California, USA). Super-luminescent diode light source with a central wavelength of 840 nm and a full bandwidth of 50 nm was adapted to the OCT. The retinal thickness was accessed by the automatic software of RTVue scanner with manual adjusting. The retinal thickness was defined from layer of retinal pigment eitheluim (RPE) to retinal ganglion cell layer (GCL).
Two separate studies were conducted. Retinal images were taken on experimental day 4, 10, 13, 17, 22, 28 and 31 for the second study and day 0, 4, 7, 10, 14 and 18 for the first study. Animals were anesthetized by inhalation of 5% isoflourane and pupils were diluted with 1% tropicamide and 1% phenylephrine. Prior to OCT analysis animals were fixed on a support frame and the eye to be imaged positioned to align with the center of the scan beam perpendicular to the fundus. […] After imaging, the animals were recovered and returned to cages. Retinal thickness from six time points of OCT measurement were analyzed by repeated measures analysis of variance (ANOVA) using Prism software. […] All data were expressed as mean value±SEM.

rat Lp-PLA2 enzyme = conditions: compared with Lp-PLA2 inhibitor '495
Lp-PLA2 = Lp-PLA2 (Oryctolagus cuniculus, UniProt G1SE06); conditions: rabbits on cholesterol/copper diet, 10 mg/kg daily s.c. from day 1-72
Experimental: 3-4 month SPF male New Zealand White rabbits were purchased from Covance (Denver, Pa.), individually housed and had ad libitum access to rabbit chow and water on a 12/12 h light/dark cycle. Experiments were repeated twice with animals arriving 3 weeks apart. Rabbits were randomly assigned to five treatment groups with a sample size of 8 animals per group. 32 Rabbits were placed on cholesterol/copper diet and 8 rabbits fed normal chow. Cholesterol/copper diet consisted of 160 g per day of commercially produced diet (Purina Mills High Fibre Diet) supplemented or not with 2% cholesterol. Copper sulphate (0.12 mg/l) was added to drinking water of rabbits assigned the cholesterol supplemented diet.
Animals were weighed and drug or vehicle administration delivered at 3 ml/kg to affect a 10 mg/kg dose by subcutaneous injection in the neck fold.
Six groups of animals consisting of 8 animals were assigned to the following treatment groups. Groups 1-5 were maintained on the cholesterol supplemented diet with copper sulphate in the drinking water.
Lp-PLA2 activity was measured in plasma samples collected at days 1, 29, 32 and 72 using proprietary GSK techniques.

[4] = test system: rat brain microvascular endothelial cells co-cultured with rat brain astrocytes; test: Permeability of Lucifer yellow in BMEC-astrocyte co-cultures; type: cell-based; conditions: lysoPC 0.3-10 ug/mL added to apical side, 90 min
Experimental: (§3) Three-week-old Sprague-Dawley (SD) rats were sacrificed by cervical dislocation. After white matter, meninges and macroscopic pial vessels were removed, the gray matter was thoroughly triturated in ice-cold Dulbecco's modified Eagle's medium (DMEM). The tissue was then digested in DMEM (7 ml for 5 rat brains) containing collagenease II (1 mg/ml) and DNase I (39 U/ml) at 37° C. for 1 h with shaking speed of 130 rpm. The digested tissue was diluted with the same volume of DMEM and centrifuged at 1000 g for 8 min at 4° C. The cell pellet was re-suspended in a 20% bovine serum albumin (BSA)-DMEM solution and centrifuged at 1000 g for 20 min at 4° C. The microvessels obtained in the pellet were further digested with collagenase-dispase (1 mg/mL) and DNase I (39 U/ml) in DMEM (3 ml for 5 rat brains) for 0.5 h at 37° C. […] After 2 days of puromycin treatment, the culture medium was replaced with supplemented EBM®2 for another 2 days of maintenance before they were ready for construction of co-cultured model. […]
(§4) The astrocytes suspended in 10% FBS-DMEM were seeded on to Poly-L-lysine coated 24-well culture plate at passage between 1 and 4 at a density of 1.5×10^4/cm^2. […] Transendothelial electrical resistance (TEER) of the monolayers were determined everyday using Millicell-ERS (Millipore, Bedford, Mass.) and when the TEER >150 Ω·cm^2, the monolayer was ready for transport experiment. […]

[5] = test system: rat brain microvascular endothelial cells co-cultured with rat brain astrocytes; test: Transendothelial electrical resistance of BMEC monolayers; type: cell-based; conditions: after addition of lysoPC to endothelial monolayers
Experimental: as §3, §4

Chain of Lp-PLA2 (G1SE06 22-423): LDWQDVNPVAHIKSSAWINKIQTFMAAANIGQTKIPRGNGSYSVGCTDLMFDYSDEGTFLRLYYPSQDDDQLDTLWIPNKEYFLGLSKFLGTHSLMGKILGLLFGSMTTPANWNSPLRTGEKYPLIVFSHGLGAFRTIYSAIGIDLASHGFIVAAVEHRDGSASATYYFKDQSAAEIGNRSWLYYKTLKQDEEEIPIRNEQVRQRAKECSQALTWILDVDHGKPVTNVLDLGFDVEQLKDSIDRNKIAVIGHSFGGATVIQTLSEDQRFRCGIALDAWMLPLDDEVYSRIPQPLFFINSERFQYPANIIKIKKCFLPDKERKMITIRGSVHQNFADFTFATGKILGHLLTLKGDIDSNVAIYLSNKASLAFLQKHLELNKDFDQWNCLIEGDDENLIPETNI

CCN(CC)CCN(Cc1ccc(-c2ccc(C(F)(F)F)cc2)cc1)C(=O)Cn1c(SCc2ccc(F)cc2)nc(=O)c2c1CCC2 [Darapladib, N-[2-(diethylamino)ethyl]-2-[[(4-fluorophenyl)methyl]thio]-4,5,6,7-tetrahydro-4-oxo-N-[[4′-(trifluoromethyl)[1,1′-biphenyl]-4-yl]methyl]-1H-cyclopentapyrimidine-1-acetamide]
total amount of Abeta42 (Abeta42 load) in the cerebral cortex [1]: reduced amyloid deposition; also recorded: reduced the total amount of Abeta42 | density of Abeta42-positive neurons in cerebral cortex ([1]; entire brain): reduction in the number (density) of Abeta42 peptide positive neurones; also recorded: levels comparable to controls | general wellness (activity and alertness) (DM/HC pigs): general wellness effect (increased activity and alertness) | density of arteriolar leaks in the cortex (number of leaking arterioles per sq mm) [2]: reduced somewhat | extent of vascular (BBB) leaks ([2]; 10 mg/kg/day): effective at reducing the extent of leaks in all vessel types; also recorded: highly efficacious effect in reducing the permeability of the BBB; also recorded: somewhat reduced

CCN1CCC(N(Cc2ccc(-c3ccc(Cl)cc3)cc2)C(=O)Cn2c(CCc3cccc(F)c3F)nc(=O)c3ccccc32)CC1.O=C(O)C(O)C(O)C(=O)O [Lp-PLA2 inhibitor '859, N-(1-ethylpiperidin-4-yl)-2-(2-(2-(2,3-difluorophenyl)-ethyl)-4-oxo-4H-quninazolin-1-yl)-N-(4′-chloro-biphenyl-4-ylmethyl)acetamide bitartrate]
STZ-induced retinal thinning (neuroretinal thickness by OCT) [3]: not statistically significantly different from vehicle only treated animals | potency as inhibitor of rat Lp-PLA2 enzyme, relative (rat Lp-PLA2 enzyme): significantly less potent inhibitor | plasma Lp-PLA2 activity (Lp-PLA2): significantly lower levels of Lp-PLA2 activity

lysophosphatidylcholine [lysoPC]
transport of Lucifer yellow across endothelial monolayer [4]: dose-dependent reduction in the transport of Lucifer yellow | transendothelial electrical resistance (TEER) [5]: reduction in the transendothelial electrical resistance

Reference: US20130267544A1, “Use of LP-PLA2 Inhibitors in the Treatment and Prevention of Eye Diseases” (priority 2010, published 2013)
